Experiments:
BCL-2 = BCL-2 (Homo sapiens (Human), UniProt P10415); assay: BCL-2 TR-FRET Assay (primary PPI inhibition); assay type: binding; conditions: 60 min incubation, read-out: BCL2 IC50
Outline: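 His-tagged BCL-2 (3 ng) with anti-His Tb donor, dye-labeled acceptor and BCL-2 peptide ligand; compound added at 200× stock, final DMSO 0.5%. 60 min incubation, then TR-FRET read at 340 nm excitation, 620/665 nm emission, 60 µs delay, 500 µs integration.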

BCL-xL = BCL-xL (Homo sapiens (Human), UniProt Q07817); assay: BCL-xL TR-FRET Assay (primary PPI inhibition); assay type: binding; conditions: 60 min incubation, read-out: BCLxL IC50
Outline: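 TR-FRET competition of His-tagged BCL-xL (10.5 ng) binding to dye-labeled peptide ligand, with anti-His Tb donor; compound added from 200× stock, 0.5% DMSO final. After 60 min incubation, read at 340 nm excitation, 620/665 nm emission, 60 µs delay, 500 µs integration.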

BCL-2 [G101V] = BCL-2 [G101V] (Homo sapiens (Human), UniProt P10415, G101V); assay: BCL-2 [G101V] TR-FRET Assay (primary PPI inhibition); assay type: binding; conditions: 60 min incubation, read-out: BCL2[G101V] IC50
Description: Example C. BCL-2 [G101V]TR-FRET Assay
The following assay concentrations and times were used: 0.22 ng/μl of BCL-2 (SinoBiological, #10195-H08E1), 5 μL of 1:100 anti-His Tb-labeled donor, 5 μL of 1:100 Dye-labeled acceptor, 5 μL of 1:40 BCL-2 Peptide Ligand (BPS Bioscience, #50223), and 2 μL of 200× test compound, with 60 min incubation time (final concentration of DMSO 0.5%). The results of the assay were read using a plate reader with the following parameters: TR FRET, 340ex/620 and 665em; 60 usec Delay; and 500 usec integration.
Instrumentation: CLARIOstar Plus (BMG LABTECH); Biomek FX for liquid handling (Beckman Coulter).

RS4-11 cells = assay: Cell viability assay (CellTiter-Glo), RS4-11; assay type: cell-based; conditions: Homo sapiens, RS4-11, 72 h, 3 days of incubation
Outline: (§1)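 4000 cells/well in DMEM (HEK293, adhered overnight) or RPMI (RS4-11, MOLT-4) with 10% FBS; compounds added at 0.2% DMSO final. After 3 days, viability read by CellTiter-Glo luminescence.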

[1] = Cell viability assay (CellTiter-Glo), HEK293; assay type: cell-based; conditions: human, HEK293 cells, 3 days of incubation
Outline: as §1

MOLT-4 cells = assay: Cell viability assay (CellTiter-Glo), MOLT-4; assay type: cell-based; conditions: Homo sapiens, 72 h, 3 days of incubation
Outline: as §1

[2] = tested on: caspase-3 and -7 activities in RS4-11 cells; assay: Caspase-3/7 activation (Caspase-Glo 3/7) in RS4-11 cells; assay type: cell-based; conditions: Homo sapiens, 3.5 h, read-out: Cas-3/7 EC50
Outline: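 RS4-11 cells exposed to graded compound concentrations for 3.5 h at 37 °C, 5% CO2. Caspase-3/7 activity then read as luminescence after 30 min at rt with a DEVD-based luminogenic substrate reagent.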

Chain of BCL-xL (Q07817 whole entry): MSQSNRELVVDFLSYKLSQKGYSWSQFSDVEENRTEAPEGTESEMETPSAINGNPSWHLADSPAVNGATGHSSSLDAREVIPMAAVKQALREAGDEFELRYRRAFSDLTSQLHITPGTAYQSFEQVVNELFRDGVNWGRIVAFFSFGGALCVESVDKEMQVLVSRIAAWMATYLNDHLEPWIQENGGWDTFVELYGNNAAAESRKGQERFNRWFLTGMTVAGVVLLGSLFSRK

| SMILES | IC50 (BCL-2) [nM] | IC50 (BCL-xL) [nM] | IC50 (BCL-2 [G101V]) [nM] | CC50 (RS4-11 cells) [nM] | CC50 at 3 days [1] [nM] | CC50 (MOLT-4 cells) [nM] | EC50 [2] [nM] |
| --- | --- | --- | --- | --- | --- | --- | --- |
| Cc1c(C(=O)N(Cc2ccccc2C#N)c2ccc(O)cc2)cc(-c2cc(Cl)ccc2C(=O)N2Cc3ccccc3C[C@H]2CN2CCOCC2)n1C [Compound 6, 5-[5-chloro-2-[(3S)-3-(morpholinomethyl)-3,4-dihydro-1H-isoquinoline-2-carbonyl]phenyl]-N-[(2-cyanophenyl)methyl]-N-(4-hydroxyphenyl)-1,2-dimethyl-pyrrole-3-carboxamide] | ≤ 5 | ≤ 2000 | ≤ 100 | 100 to 200 | 10000 to 25000 | 5000 to 10000 | 200 to 500 |
| COc1cccc(CN(C(=O)c2cc(-c3cc(Cl)ccc3C(=O)N3Cc4ccccc4C[C@H]3CN3CCOCC3)n(C)c2C)c2ccc(O)cc2)c1C [Compound 7, 5-[5-chloro-2-[(3S)-3-(morpholinomethyl)-3,4-dihydro-1H-isoquinoline-2-carbonyl]phenyl]-N-(4-hydroxyphenyl)-N-[(3-methoxy-2-methyl-phenyl)methyl]-1,2-dimethyl-pyrrole-3-carboxamide] | ≤ 5 | 2000 to 5000 | ≤ 100 | ≤ 100 | 10000 to 25000 | 5000 to 10000 | ≤ 200 |
| COc1cccc(CN(C(=O)c2cc(-c3cc(Cl)c(C#N)cc3C(=O)N3Cc4ccccc4C[C@H]3CN3CCOCC3)n(C)c2C)c2ccc(O)cc2)c1C [Compound 9, 5-[5-chloro-4-cyano-2-[(3S)-3-(morpholinomethyl)-3,4-dihydro-1H-isoquinoline-2-carbonyl]phenyl]-N-(4-hydroxyphenyl)-N-[(3-methoxy-2-methyl-phenyl)methyl]-1,2-dimethyl-pyrrole-3-carboxamide] | ≤ 5 | 2000 to 5000 | 100 to 1000 | > 200 | 10000 to 25000 | ≤ 5000 | > 500 |
| COc1cc(C(=O)N2Cc3ccccc3C[C@H]2CN2CCOCC2)c(-c2cc(C(=O)N(Cc3cccc(OC)c3C)c3ccc(O)cc3)c(C)n2C)cc1Cl [Compound 11, 5-[5-chloro-4-methoxy-2-[(3S)-3-(morpholinomethyl)-3,4-dihydro-1H-isoquinoline-2-carbonyl]phenyl]-N-(4-hydroxyphenyl)-N-[(3-methoxy-2-methyl-phenyl)methyl]-1,2-dimethyl-pyrrole-3-carboxamide] | 10 to 50 | 2000 to 5000 | 100 to 1000 | 100 to 200 | > 25000 | ≤ 5000 | ≤ 200 |
| COc1cccc(CN(C(=O)c2cc(-c3cc(F)c(OC(F)F)cc3C(=O)N3Cc4ccccc4C[C@H]3CN3CCOCC3)n(C)c2C)c2ccc(O)cc2)c1C [Compound 16, 5-[4-(difluoromethoxy)-5-fluoro-2-[(3S)-3-(morpholinomethyl)-3,4-dihydro-1H-isoquinoline-2-carbonyl]phenyl]-N-(4-hydroxyphenyl)-N-[(3-methoxy-2-methyl-phenyl)methyl]-1,2-dimethyl-pyrrole-3-carboxamide] | 5 to 10 | 2000 to 5000 | > 1000 | > 200 | > 25000 | ≤ 5000 | 200 to 500 |
| COc1cc(C(=O)N2Cc3ccccc3C[C@H]2CN2CCOCC2)c(-c2cc(C(=O)N(Cc3cccc(OC)c3C)c3ccc(O)cc3)c(C)n2C)cc1F [Compound 21, 5-[5-fluoro-4-methoxy-2-[(3S)-3-(morpholinomethyl)-3,4-dihydro-1H-isoquinoline-2-carbonyl]phenyl]-N-(4-hydroxyphenyl)-N-[(3-methoxy-2-methyl-phenyl)methyl]-1,2-dimethyl-pyrrole-3-carboxamide] | 10 to 50 | 2000 to 5000 | 100 to 1000 | 100 to 200 | > 25000 | ≤ 5000 | ≤ 200 |
| COc1cccc(CN(C(=O)c2cc(-c3ccc(OC(F)F)cc3C(=O)N3Cc4ccccc4C[C@H]3CN3CCOCC3)n(C)c2C)c2ccc(O)cc2)c1C [Compound 31, 5-[4-(difluoromethoxy)-2-[(3S)-3-(morpholinomethyl)-3,4-dihydro-1H-isoquinoline-2-carbonyl]phenyl]-N-(4-hydroxyphenyl)-N-[(3-methoxy-2-methyl-phenyl)methyl]-1,2-dimethyl-pyrrole-3-carboxamide] | 5 to 10 | 2000 to 5000 | > 1000 | > 200 | > 25000 | ≤ 5000 | > 500 |
| COc1cccc(CN(C(=O)c2cc(-c3cc(Cl)c(OC(F)F)cc3C(=O)N3Cc4ccccc4C[C@H]3CN3CCOCC3)n(C)c2C)c2ccc(O)cc2)c1C [Compound 36, 5-[5-chloro-4-(difluoromethoxy)-2-[(3S)-3-(morpholinomethyl)-3,4-dihydro-1H-isoquinoline-2-carbonyl]phenyl]-N-(4-hydroxyphenyl)-N-[(3-methoxy-2-methyl-phenyl)methyl]-1,2-dimethyl-pyrrole-3-carboxamide] | 5 to 10 | 2000 to 5000 | 100 to 1000 | > 200 | > 25000 | 5000 to 10000 | > 500 |
| COc1cccc(CN(C(=O)c2cc(-c3cc(C(F)F)c(Cl)cc3C(=O)N3Cc4ccccc4C[C@H]3CN3CCOCC3)n(C)c2C)c2ccc(O)cc2)c1C [Compound 43, 5-[4-chloro-5-(difluoromethyl)-2-[(3S)-3-(morpholinomethyl)-3,4-dihydro-1H-isoquinoline-2-carbonyl]phenyl]-N-(4-hydroxyphenyl)-N-[(3-methoxy-2-methyl-phenyl)methyl]-1,2-dimethyl-pyrrole-3-carboxamide] | ≤ 5 | 2000 to 5000 | 100 to 1000 | > 200 | > 25000 | ≤ 5000 | > 500 |
| COc1cccc(CN(C(=O)c2cc(-c3cc(F)c(F)cc3C(=O)N3Cc4ccccc4C[C@H]3CN3CCOCC3)n(C)c2C)c2ccc(O)cc2)c1C [Compound 51, 5-[4,5-difluoro-2-[(3S)-3-(morpholinomethyl)-3,4-dihydro-1H-isoquinoline-2-carbonyl]phenyl]-N-(4-hydroxyphenyl)-N-[(3-methoxy-2-methyl-phenyl)methyl]-1,2-dimethyl-pyrrole-3-carboxamide] | 10 to 50 | 2000 to 5000 | 100 to 1000 | 100 to 200 | > 25000 | ≤ 5000 | 200 to 500 |
| COc1cccc(CN(C(=O)c2cc(-c3cc(F)ccc3C(=O)N3Cc4ccccc4C[C@H]3CN3CCOCC3)n(C)c2C)c2ccc(O)cc2)c1C [Compound 52, 5-[5-fluoro-2-[(3S)-3-(morpholinomethyl)-3,4-dihydro-1H-isoquinoline-2-carbonyl]phenyl]-N-(4-hydroxyphenyl)-N-[(3-methoxy-2-methyl-phenyl)methyl]-1,2-dimethyl-pyrrole-3-carboxamide] | ≤ 5 | 2000 to 5000 | ≤ 100 | ≤ 100 | > 25000 | ≤ 5000 | 200 to 500 |
| COc1ccccc1CN(C(=O)c1cc(-c2cc(F)ccc2C(=O)N2Cc3ccccc3C[C@H]2CN2CCOCC2)n(C)c1C)c1ccc(O)cc1 [Compound 54, 5-[5-fluoro-2-[(3S)-3-(morpholinomethyl)-3,4-dihydro-1H-isoquinoline-2-carbonyl]phenyl]-N-(4-hydroxyphenyl)-N-[(2-methoxyphenyl)methyl]-1,2-dimethyl-pyrrole-3-carboxamide] | 5 to 10 | ≤ 2000 | ≤ 100 | 100 to 200 | > 25000 | ≤ 5000 | > 500 |
| COc1cccc(CN(C(=O)c2cc(-c3cc([N+](=O)[O-])ccc3C(=O)N3Cc4ccccc4C[C@H]3CN3CCOCC3)n(C)c2C)c2ccc3[nH]ncc3c2)c1C [Compound 65, N-(1H-indazol-5-yl)-N-[(3-methoxy-2-methyl-phenyl)methyl]-1,2-dimethyl-5-[2-[(3S)-3-(morpholinomethyl)-3,4-dihydro-1H-isoquinoline-2-carbonyl]-5-nitro-phenyl]pyrrole-3-carboxamide] | 10 to 50 | > 5000 | > 1000 | > 200 | 10000 to 25000 | ≤ 5000 | > 500 |
